Literature values in paper PMC10025373, “Red ginseng dietary fiber promotes probiotic properties of Lactiplantibacillus plantarum and alters bacterial metabolism” (Frontiers in Microbiology, 2023).

Legend:
[1] = system: Staphylococcus aureus; conditions: ref Lens et al., 2016
[2] = system: E. coli; conditions: ref Lens et al., 2016
[3] = system: actomyosin motor; design: method as in Komatsu et al., 2004; conditions: ref Komatsu et al., 2004

SMILES | antimicrobial activity [1] | antimicrobial activity [2] | function of the actomyosin motor [3]
CCCCOC(C)=O [butyl acetate] | antimicrobial activity | antimicrobial activity | –
CCCCCCO [Hexanol] | – | – | modulates the function of the actomyosin motor
